Assay results reported in patent publication US11926645B2, “Compounds and methods for treatment of viral infections” (priority 2020, dated 2024).
Like-named read-outs stand apart in the source and are kept apart here.

Key:
RSV strain A2 = assay: RSV antiviral assay (Hep2), EC50-Hep2/B1-384; assay type: cell-based; conditions: human respiratory syncytial virus, HEp-2, 96 h; Hep2 cells, 4 days, Cell-Titer Glo
in vitro [1] = conditions: African green monkey
Plasma stability = conditions: human
in vitro [2] = assay type: in vitro ADME, Human; conditions: human, s9, pH 7.4
In short: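 Compound at 2 μM final was incubated with S9 fraction at 1.0 mg/mL protein in 100 mM PBS pH 7.4, in duplicate, with GS-7340 as positive control. Samples were taken at 0, 10, 20, 30, 60 and 120 min and quenched with internal standard. Remaining compound was quantified by LC-MS as analyte/internal-standard peak-area ratio.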

[3] = in vivo, po
[4] = in vivo, po; remark: listed apart in the source
[5] = test system: RSV-Fluc (Respiratory Syncytial virus strain A2 containing the firefly luciferase reporter); assay: microbe, parasite or virus in culture; assay type: cell-based; conditions: human respiratory syncytial virus, 72 h, NHBE cells, three days
SARS-CoV-2 WA1/2020 A = assay: microbe, parasite or virus in culture; assay type: cell-based; conditions: Severe acute respiratory syndrome coronavirus 2, Vero C1008
[6] = test system: SARS-CoV-2 SA/2020 B.1.351; assay: microbe, parasite or virus in culture; assay type: cell-based; conditions: Severe acute respiratory syndrome coronavirus 2, Vero C1008
SARS-CoV-2 BZ/2021 P.1 = assay: microbe, parasite or virus in culture; assay type: cell-based; conditions: Severe acute respiratory syndrome coronavirus 2, Vero C1008
[7] = male, Sprague-Dawley, rat, in vivo, po, 8 mg/kg
[8] = test system: SARS-CoV-2 hCoV-19/Japan/TY7-503/2021 (BZ/2021); assay type: in vivo
in vitro [9] = conditions: hamster
SARS-CoV-2 (WA1) = assay type: in vivo, AGM
in vitro [10] = assay type: cell-based; conditions: human
Description: The cytotoxicity of compounds was determined in A549-hACE2 cells in the following manner. Compounds (200 nL) were spotted onto 384-well Grenier plates prior to seeding 5000 A549-hACE2 cells/well in a volume of 40 μL culture medium. The plates were incubated at 37° C. for 48 hours with 5% CO2. On day 2, 40 μL of CellTiter-Glo (Promega) was added and mixed 5 times.

CES1 = target: T1, CES1 (Homo sapiens, UniProt P23141); assay: CES1/2 stability, CES1; assay type: in vitro ADME; conditions: CES1 Supersome preparation; Supersome preparations, CES 1.5 mg/ml, 2 μM substrate, pH 7.4, 37° C.; read-out: CES1 T1/2
T1 construct: purchased
T1 sequence (P23141 18-567): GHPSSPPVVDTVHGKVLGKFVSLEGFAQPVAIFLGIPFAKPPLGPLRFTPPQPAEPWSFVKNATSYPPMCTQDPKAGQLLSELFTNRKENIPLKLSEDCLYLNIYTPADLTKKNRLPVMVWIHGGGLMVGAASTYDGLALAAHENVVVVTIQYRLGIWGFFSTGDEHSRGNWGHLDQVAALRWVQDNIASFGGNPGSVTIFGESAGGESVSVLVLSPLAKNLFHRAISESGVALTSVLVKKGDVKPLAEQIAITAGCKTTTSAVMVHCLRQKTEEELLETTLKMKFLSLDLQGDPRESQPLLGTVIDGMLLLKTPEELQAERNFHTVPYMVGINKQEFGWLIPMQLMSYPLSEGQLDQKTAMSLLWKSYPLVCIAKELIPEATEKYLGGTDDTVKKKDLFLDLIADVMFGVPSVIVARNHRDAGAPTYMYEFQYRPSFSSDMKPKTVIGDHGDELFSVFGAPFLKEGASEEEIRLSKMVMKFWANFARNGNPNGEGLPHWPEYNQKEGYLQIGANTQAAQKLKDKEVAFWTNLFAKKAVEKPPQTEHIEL
Description: Test compounds or positive control substrates (oseltamivir for CES1 enzymes or procaine for CES2) were incubated with individual Supersome preparations (final CES concentration 1.5 mg/ml) in 0.1 M potassium phosphate buffer (pH 7.4) at 37° C. Substrates were added to a final concentration of 2 μM to initiate the reaction. The final incubation volume was 250 μL. Aliquots were removed after incubation for 0, 10, 30, 60 and 120 min. The reactions were stopped by the addition of IS/Q. Following protein precipitation and centrifugation, 150 μL of supernatant was diluted with an equal volume of water prior to LC-MS analysis. For procaine 150 μL of supernatant was dried down and reconstituted with 250 μL water. All samples were analyzed by LC-MS and the PAR values were used for quantification.

## CC(C)C(=O)OC[C@H]1O[C@@](C#N)(c2ccc3c(N)ncnn23)[C@H](OC(=O)C(C)C)[C@@H]1OC(=O)C(C)C [Compound 1, (2R,3R,4R,5R)-2-(4-aminopyrrolo[2,1-f][1,2,4]triazin-7-yl)-2-cyano-5-((isobutyryloxy)methyl)tetrahydrofuran-3,4-diyl bis(2-methylpropanoate)]
RSV strain A2
  EC50: 261 nM
In vitro [1]
  CC50: > 100000 nM
Plasma stability
  half-life at 2 μM: 5.5 min
In vitro [2]
  half-life at 2 μM: 0.37 min
[3]; ferret, 30 mg/kg
  Compound 1 concentration transiently observed: ^aapproximately 10 nM Compound 1 transiently observed in first two hours.
[3]
  oral bioavailability (in words): excellent oral bioavailability
[3]; 30 mg/kg
  Cmax: 15.8 ± 4.7 µM
[4]
  anabolism to bioactive Reference Compound B (in words): efficient anabolism to bioactive Reference Compound B
[5]
  EC50: 389 nM
SARS-CoV-2 WA1/2020 A
  EC50: 730 nM
[6]
  EC50: 110 nM
SARS-CoV-2 BZ/2021 P.1
  EC50: 220 nM
[7]
  Cmax: 5.83 µM
[8]; […], 5.5 days after initiation of co-housing
  Infectious viral particles in nasal turbinates of contact animals: absent
[8]; […], source animals oral 10 mg/kg b.i.d.
  Shedding of infectious particles or viral RNA by contacts of treated source ferrets: None of the contacts of treated source ferrets shed infectious particles or viral RNA at any time
[8]; in vivo
  Viral RNA in nasal turbinates of the contact animals: < 10^5 copies/g nasal turbinate
[8]; in vivo, po, 10 mg/kg
  Lowering of viral RNA copies in nasal lavages and turbinates: over three orders of magnitude
  Shed virus burden (nasal lavage): undetectable
  Tissue titers (nasal turbinates): undetectable
In vitro [9]
  CC50: > 100000 nM
SARS-CoV-2 (WA1); AGMs, PO 60 or 120 mg/kg QD, days 2-6
  Infectious SARS-CoV-2 titers versus vehicle: trended lower than the vehicle group
SARS-CoV-2 (WA1); AGMs, PO 60 or 120 mg/kg QD, terminal day 6
  Viral RNA loads in lower lung tissue versus vehicle: trended lower
SARS-CoV-2 (WA1); in vivo, po
  mean SARS-CoV-2 gRNA in BALF versus vehicle: significantly reduced
SARS-CoV-2 (WA1); in vivo, po, 60 mg/kg
  SARS-CoV-2 gRNA in BALF versus vehicle: significantly lower than vehicle animals
In vitro [10]
  CC50 at 48 h: > 50000 nM
In vitro [10]; host cells A549-ACE2, read-out: CC50, A549-ACE2
  CC50: > 50000 nM
CES1
  half-life at 2 μM: < 1 min
